Source: patent US9512125B2, “Substituted pyrazolo[3.4-D] pyrimidines as anti-inflammatory agents” (THE REGENTS OF THE UNIVERSITY OF CALIFORNIA, priority 2004, dated 2016)

Key:
[1] = test system: HUVEC with or without PBMC (3C, 4H, SAG and LPS systems); test: BioMAP inflammation model systems (3C, 4H, SAG, LPS), cell-based ELISA profiling; parameters: species or system human; conditions: 4 systems (3C, 4H, SAG, LPS); concentration of 5 micromolar; 24 h stimulation
[2] = test system: IFN-gamma signaling; test: Gamma interferon signaling inhibition in cell-based (BioMAP) assay; parameters: species or system human; conditions: weakly inhibit T cell and monocyte activation (less than 50%) but inhibit IFN-gamma signaling and collagen production
Experimental: In another embodiment, the compounds of the invention are the subset of compounds of Formula (I) that are gamma interferon signaling inhibitors. […] Gamma interferon signaling inhibitors may be especially useful in treating the inflammation underlying multiple diseases including rheumatoid arthritis, systemic sclerosis, COPD, asthma, atherosclerosis, cirrhosis, pulmonary fibrosis, sarcoidosis, keloids, and renal fibrosis.
(§1) Human umbilical vein endothelial cells (HUVEC) were cultured as described in Kunkel et al., 2004, FASEB J 18:1279-1281. Peripheral blood mononuclear cells (PBMC) were prepared from buffy coats (Stanford Blood Bank, Stanford, Calif.) by centrifugation over Hisopaque-1077 (Sigma). Four assay systems, 3C, 4H, SAG, and LPS, were used. For the 3C system, HUVEC were cultured for 24 h in microtiter plates (Falcon; BD Biosciences), in the presence of cytokines IL-1β (1 ng/ml), TNF-α (5 ng/ml), and IFN-γ (20 ng/ml). For the 4H system, HUVEC were cultured in the presence of IL-4 (5 ng/ml) and histamine (10 μM). For the SAG system, HUVEC were cultured with PBMC (7.5×10^4) and SAG (20 ng/ml). For the LPS system, HUVEC were cultured with PBMC (7.5×10^4) and LPS (2 ng/ml). Compounds were added 1 h before stimulation and were present during the entire 24-h stimulation period. Cell-based enzyme-linked immunosorbent assay (ELISAs) were carried out as described. (See Kunkel et al., 2004, FASEB J 18:1279-1281.)

[3] = test system: T cell activation; test: T cell activation inhibition in cell-based (BioMAP) assay; parameters: species or system human; conditions: strongly inhibit T cell activation: at least one listed gene product inhibited by at least 50% in a cell-based assay
Experimental: T-cell activation inhibitors may be especially useful in treating the inflammation underlying arthritis, psoriasis, vasculitis, multiple sclerosis, IBD, asthma, atherosclerosis, or other inflammatory disease.
as §1

[4] = test system: monocyte activation; test: Monocyte activation inhibition in cell-based (BioMAP) assay; parameters: species or system human; conditions: weakly inhibit T cell activation, strongly inhibit monocyte activation, MCP-1 and IL-8 (at least 50%) in a cell-based assay
Experimental: as §1

[5] = test system: mouse peritoneal inflammation model; test: Mouse peritoneal inflammation model (thioglycollate); format: in vivo; conditions: 10 mg/kg intraperitoneal single dose, thioglycollate stimulus, peritoneal lavage at 4 and 24 hours
Experimental: The following example illustrates the ability of a compound useful in the methods of the present invention to reduce neutrophil and monocyte recruitment, as well as to reduce the total number of leukocytes in a mouse peritoneal inflammation model.
A single dose (10 mg/kg in 200 μl) of an anti-inflammatory pyrazolopyrimidine compound of the present invention (compound 30 in Table 1, above) was administered intraperionteally to a group of 6 mice while another group of 6 mice received an intraperitoneal injection of vehicle only. Fifteen minutes later, an inflammatory stimulus (thioglycollate, 200 μl) was administered intraperitoneally to each mouse. Peritoneal lavage was collected at 4 and 24 hours subsequent to stimulus administration.
Inflammatory infiltrate was recovered by injection of 10 ml of Ca++/Mg++ free PBS, massaging, and withdrawal. Total recovered cells were counted on a hemacytometer. The results are presented in FIG. 2 (average+/−SD of 6 mice).
Neutrophils, monocytes, lymphocytes and eosinophils were enumerated by analyzing smears of the peritoneal wash stained with Wright-Geimsa stain. The results are presented in FIG. 3 (average+/−SD of 6 mice).

CC(C)(C)n1nc(Cc2cccc3ccccc23)c2c(N)ncnc21 [Compound 7]
Activity [1]: active | gamma interferon signaling inhibitor classification [2]: interferon gamma signaling inhibitor

Cc1cc(-c2nn(C(C)(C)C)c3ncnc(N)c23)cc2ccccc12 [Compound 8]
Activity [1]: active | gamma interferon signaling inhibitor classification [2]: interferon gamma signaling inhibitor

Cc1ccc(-c2nn(C(C)(C)C)c3ncnc(N)c23)c2ccccc12 [Compound 9]
Activity [1]: active | gamma interferon signaling inhibitor classification [2]: interferon gamma signaling inhibitor

CC(C)(C)n1nc(-c2ccc3c4c(cccc24)CC3)c2c(N)ncnc21 [Compound 11]
Activity [1]: active | gamma interferon signaling inhibitor classification [2]: interferon gamma signaling inhibitor

CC(C)(C)n1nc(-c2ccc(F)c3ccccc23)c2c(N)ncnc21 [Compound 12]
Activity [1]: active | gamma interferon signaling inhibitor classification [2]: interferon gamma signaling inhibitor

CC(C)(C)n1nc(-c2cccc(N)c2)c2c(N)ncnc21 [Compound 17]
T cell activation inhibitor classification [3]: T cell activation inhibitor | Activity [1]: active

CC(C)(C)n1nc(-c2cccc3ccccc23)c2c(N)ncnc21 [Compound 19]
Activity [1]: active | gamma interferon signaling inhibitor classification [2]: interferon gamma signaling inhibitor

CC(C)(C)n1nc(Cc2ccccc2Cl)c2c(N)ncnc21 [Compound 30]
monocyte activation inhibitor classification [4]: monocyte activation inhibitor | Activity [1]: active | monocyte recruitment [5]: reduce | neutrophil recruitment [5]: reduce | total number of leukocytes [5]: reduce

CC(C)(C)n1nc(-c2cccc(O)c2)c2c(N)ncnc21 [Compound 41]
T cell activation inhibitor classification [3]: T cell activation inhibitor | Activity [1]: active

Cn1nc(-c2ccc3ccccc3c2)c2c(N)ncnc21 [Compound 48]
T cell activation inhibitor classification [3]: T cell activation inhibitor | Activity [1]: active

CC(C)n1nc(-c2cccc(O)c2)c2c(N)ncnc21 [Compound 54]
T cell activation inhibitor classification [3]: T cell activation inhibitor | Activity [1]: active
